In US5691348A, “Pyridyl imidazole derivatives and processes for the preparation thereof” (Daewoo Electronics Co., Ltd., priority 1994, dated 1997):

How the values were obtained:
[1] = Metabolite analysis: enzyme digestion test with rat liver microsome, HPLC; format: in vitro ADME; details: 100 μM, 1 hour at 37° C.; for metabolite from the enzymatic digestion: rat liver microsome, HPLC (FIG. 1)
Protocol: Enzyme digestion test was executed in order to detect the metabolite of the test compound in vivo.
500 μg of NADP^+, 11 U of glucose-6-phosphate dehydrogenase and 200 μg of rat liver microsome were added to 1 ml of 0.1M phosphate buffer (pH 7.4), and to the resulting solution was added glucose-6-phosphate to a concentration of 10 mM. The resultant was incubated for 1 minute at 37° C. and added with each of the present compound (Example 3) and the Merck compound to a concentration of 100 μM. The mixture was incubated for 1 hour at 37° C., and then was added with 2 ml of dichloromethan to cease the reaction. The resultant was extracted with dichloromethan and the extract was evaporated to obtain a residue. The reside was analyzed using HPLC after dissolving in a mobile phase of the HPLC.
Column: Nucleosil phenyl column (0.46×25 cm, 5 μM)
Mobile phase: acetonitrile (50 mM, pH 5.0; 35:65, v/v)
FIG. 1 is a HPLC chart showing the result of the enzyme digestion test of the Merck compound and the compound of Example 3.

[2] = system: angiotensin II receptor; assay: Angiotensin II receptor binding assay ([3H] angiotensin II); set-up: species or system rat (Sprague-Dawley adrenal cortex/medulla; Wistar liver); details: 25° C., 60 minutes, test concentration not given
Protocol: 1. Angiotensin II receptor binding assay
In accordance with the procedure disclosed in Chiu, A. T. et al., Eur. J. Pharm., 157, 13(1981), a ligand marked with a radioisotope was reacted with an angiotensin II receptor and the reactant was filtered with a glass fiber to remove unreacted ligand. After washing the filter, the amount of the remaining isotope was measured to determine the binding activity of the ligand, as described below in detail.
Sprague-Dawley rats and Wistar rats of 250 to 350 g (from The Korea Research Institute of Chemical Technology) were tested and the test procedures were carried out at 4° C., unless otherwise specified. Adrenal gland was separated from the Sprague-Dawley rats (liver, in the case of Wistar rats) into cortex and medulla. The separated adrenal cortex and medulla were washed with a sucrose buffer solution (0.2M sucrose, 1 mM EDTA, 10 mM Tris, Ph 7.2) and homogenized in the same buffer solution by using a Teflon pestle and a Brinkmann homogenizer. The homogenates were centrifuged at 3,000× g for 10 minutes to remove precipitates and further centrifuged at 12,000× g for 13 minutes. The final supernatants were centrifuged at 102,000× g for 1 hour to obtain precipitates, which were washed with a Tris buffer solution (50 mM Tris, 5 mM MgCl2, pH 7.2) and recentrifuged at 102,000× g for 1 hour. The resulting precipitates were immediately processed at the following step or stored at -70° C.
The precipitates were suspended in a Tris buffer solution. The amount of protein was determined by using a Bio-Rad DC protein analyzing kit and the protein concentration was adjusted to the amounts of: 0.2 to 0.3 mg/ml (Sprague-Dawley rat: adrenal cortex), 1.5 to 2.0 mg/ml (Sprague-Dawley rat: adrenal medulla), and 1.5 to 2.0 mg/ml (Wistar rat: liver). To the suspension, bovine serum albumin(BSA) was added to a concentration of 0.25 wt % and the resultant was immediately processed at the following step or stored at -70° C.
50 μl (based on ligand) of [^3 H] angiotensin II (NEN, NET-446) and 10 μl of each of the test compounds with various concentrations were added to the buffer solution (50 mM Tris (pH 7.2), 5 mM MgCl2, 0.25% BSA) to adjust the final volume to be 0.5 ml. 100 μl of the receptor suspension was added thereto and the resulting solution was reacted for 60 minutes while stirring in a water bath at 25° C. 3 ml of cold buffer solution for analysis was added to cease the reaction. The isotope which was bound to the receptor was isolated from the resultant by using Brandel Cell Harvester System with Whatman glass fiber GF/C. After washing the filter, the radioactivity of the filter was determined by using a liquid scintillation counter. Binding inhibition(%) of the test compound was calculated as follows:
Binding Inhibition(%)=[{(T-B)-(S-B)}/(T-B)]×100
wherein T is the radioactivity (cpm) of the reaction product untreated with the test compound, S is the radioactivity (cpm) of the reaction product treated with the test compound, and B is the radioactivity (cpm) of blank test.

[3] = system: renal hypertensive rat; assay: Blood pressure lowering effect in renal hypertension; format: in vivo, Sprague-Dawley rat; details: Amount 3 mg; intravenous or oral (not specified)
From the text: (§1) To induce renal hypertension, left renal artery of 4 week-old male Sprague-Dawley rat (from The Korea Research Institute of Chemical Technology) was ligated. The rat was anesthetized with ether and the surgical region on the left abdomen of the rat was shaved, disinfected, and then incised about 1 cm vertically. The renal artery near abdominal aorta was isolated carefully from surrounding tissues and veins, and then ligated completely with a suture (4/0 sterile surgical silk). The muscular strata and skin of the surgical area were sutured with a suture (4/0 sterile surgical silk). The surgical region was disinfected to prevent infection and thereafter, 200 to 250 mg/kg/day of cephazolin sodium was injected intramuscularly for 2 days. 6 to 8 days after the ligation, rats showing systolic pressure of more than 180 mmHg were selected for renal hypertension test. The blood pressure was determined by a tail-cuff method from the tail under unanesthetized condition (Gerold, M. et al., Arzneimittel-Forsch., 18, 1285(1968)).
(§2) Each of the compounds to be tested was administered intravenously or orally into the renal hypertensive rat. The blood pressure of the rat was determined by direct method (Chiu, A. T. et al., J. Pharmacol. Exp. Ther., 250, 867(1989)) using a catheter. The rat was anesthetized with ketamine hydrochloride (125 mg/kg, i.p.) and a catheter was filled with saline and inserted into a carotid artery and […]. The surgical area was sutured with a metal clip. The rat was relaxed at least 3 hours and the catheter in the carotid artery was adapted to an isotec pressure transducer to determine the blood pressure and heart rate with a physiograph (Linearcorder WR3310). After the blood pressure was stabilized, the test compound was administered intravenously or orally. For intravenous administration, the administered volume and washing volume were 1.0 ml/kg and 0.2 ml, respectively. The blood pressure and heart rate were measured in regular intervals up to 24 hours after the administration of the test compound and compared with those measured after the administration of the control compound Losartan.
(§3) The test compound was dissolved in 0.05N KOH for intravenous administration and suspended in Tween 80 for oral administration.

[4] = system: unanesthetized dogs; assay: Blood pressure variation with time in unanesthetized dogs; format: in vivo, dog; details: 1.0 mg, oral
Protocol: (§4) A number of dog was fed freely in a feeding room and those weighing 7 to 12 kg in good health were selected regardless of their gender.
(§5) The test dog was anesthetized with 30 mg/kg of pentobarbital sodium by intravenous injection and the left femoral artery and femoral vein were separated carefully. Silicone catheter, specially prepared and filled with saline treated with heparin (1,000 IU/ml), was cannulated into the blood vessels. After the surgery, the dog was constrained to measure the blood pressure continuously with Gould 2000 physiograph adapted to a Grass P23XL pressure transducer; and the heart rate was monitored with ECG/Biotacho amplifier. The dog was tested at least 2 days after the surgery.
(§6) 10 mg/kg of furosemide was injected intramuscularly 18 hours (in case of intravenous injection, 2 hours) before the beginning of the test (administration of the test compound) to improve the activity of renin in blood plasma. After the injection of furosemide, neither food nor water was provided. […] The blood pressure and heart rate were measured up to 8 hours after the administration of each test compound.

[5] = system: renal hypertensive rat; assay: Blood pressure lowering effect with respect to dose (renal hypertensive rats); format: in vivo, Sprague-Dawley rat; details: oral
From the text: as §1, §2, §3
The present compounds, Losartan(Dup 753) and the Merck compound were administrated orally to rats in 10, 3 and 1 mg/kg under the same condition as in (ii) and the blood pressure lowering effect was determined.

[6] = system: unanesthetized dogs; assay: Maximum blood pressure lowering effect in unanesthetized dogs at different amounts; format: in vivo, dog
Protocol: as §4, §5
10 mg/kg of furosemide was injected intramuscularly 18 hours (in case of intravenous injection, 2 hours) before the beginning of the test (administration of the test compound) to improve the activity of renin in blood plasma. After the injection of furosemide, neither food nor water was provided. The test compound was suspended in Tween 80 and administered in an amount of 20 mg/kg orally. The blood pressure and heart rate were measured up to 8 hours after the administration of each test compound.
The maximum blood pressure lowering effect of the present compounds and the control compounds were determined in different amounts of administration using the same method as (i) and the results are given in Table 4.

[7] = system: furosemide-administered dogs; assay: Duration of action in furosemide-administered dogs; format: in vivo, dog; details: 0.3 mg oral
Protocol: as §4, §5, §6
The compound of Example 1 and the Merck compound were administered orally to the furosemide-administrated dogs as in test 3(i), and blood pressure lowering effect was measured with time.

[8] = system: renal hypertensive rats; assay: Duration of action in renal hypertensive rats; format: in vivo, Sprague-Dawley rat; details: 3 mg/kg oral
From the text: as §1, §2, §3
The compound of Example 1 and the Merck compound were tested using the hypertensive rats of test 2(i). 3 mg/kg of each compound was administered orally and blood pressure lowering effect with time was determined to measure the duration of action of the compounds.

## CCCCc1nc2cc(-c3cccc[n+]3[O-])c(C)nc2n1Cc1ccc(-c2ccccc2-c2nn[nH]n2)cc1 [Example 3, 2-Butyl-5-methyl-6-(1-oxy-pyridin-2-yl)-3-[2'-(1H-tetrazol-5-yl)-biphenyl-4-ylmethyl]-3H-imidazo[4,5-b]pyridine]
[1]; in contrast with the Merck compound
  stability against the enzymatic digestion: good stability against the enzymatic digestion
[1]
  metabolite from the enzymatic digestion: has no metabolite from the enzymatic digestion
[2]
  Binding Inhibition: 86.4%
[3]
  Maximum Blood Pressure Lowering Effect: -50%
[4]; 0.5 hr
  Maximum Blood Pressure Lowering Effect: -16.2%
[4]; 1 hr
  Maximum Blood Pressure Lowering Effect: -23.8%
[4]; 2 hr
  Maximum Blood Pressure Lowering Effect: -30.0%
[4]; 4 hr
  Maximum Blood Pressure Lowering Effect: -32.7%
[4]; 6 hr
  Maximum Blood Pressure Lowering Effect: -35.5%
[4]; 8 hr
  Maximum Blood Pressure Lowering Effect: -33.0%
[5]; 1 mg/kg
  Maximum Blood Pressure Lowering Effect: -20%
[6]; 0.1 mg/kg
  Maximum Blood Pressure Lowering Effect: -10%
[6]; 0.3 mg/kg
  Maximum Blood Pressure Lowering Effect: -11%
[6]; 1 mg/kg
  Maximum Blood Pressure Lowering Effect: -37%

## CCc1nc2c(C)cc(C)nc2n1Cc1ccc(-c2ccccc2-c2nnn[nH]2)cc1 [Merck Compound, reference compound]
[1]
  metabolite from the enzymatic digestion: has a metabolite
[7]; 0 min
  Maximum Blood Pressure Lowering Effect: 0.0%
[7]; 10 min
  Maximum Blood Pressure Lowering Effect: -5.0%
[7]; 20 min
  Maximum Blood Pressure Lowering Effect: -12.2%
[7]; 30 min
  Maximum Blood Pressure Lowering Effect: -14.4%
[7]; 60 min
  Maximum Blood Pressure Lowering Effect: -20.1%
[7]; 90 min
  Maximum Blood Pressure Lowering Effect: -24.4%
[7]; 120 min
  Maximum Blood Pressure Lowering Effect: -19.1%
[7]; 150 min
  Maximum Blood Pressure Lowering Effect: -24.2%
[7]; 180 min
  Maximum Blood Pressure Lowering Effect: -18.9%
[7]; 210 min
  Maximum Blood Pressure Lowering Effect: -17.0%
[7]; 240 min
  Maximum Blood Pressure Lowering Effect: -17.0%
[7]; 270 min
  Maximum Blood Pressure Lowering Effect: -13.4%
[7]; 300 min
  Maximum Blood Pressure Lowering Effect: -14.9%
[7]; 330 min
  Maximum Blood Pressure Lowering Effect: -15.6%
[7]; 360 min
  Maximum Blood Pressure Lowering Effect: -15.6%
[7]; 390 min
  Maximum Blood Pressure Lowering Effect: -11.4%
[7]; 420 min
  Maximum Blood Pressure Lowering Effect: -10.7%
[7]; 450 min
  Maximum Blood Pressure Lowering Effect: -11.4%
[7]; 480 min
  Maximum Blood Pressure Lowering Effect: -13.8%
[7]; Table 6, dogs
  time for which the maximum blood pressure lowering effect lasted after the administration: 2 to 3 h
[8]; 0 min
  Maximum Blood Pressure Lowering Effect: 0%
[8]; 10 min
  Maximum Blood Pressure Lowering Effect: -15%
[8]; 20 min
  Maximum Blood Pressure Lowering Effect: -27%
[8]; 30 min
  Maximum Blood Pressure Lowering Effect: -28%
[8]; 60 min
  Maximum Blood Pressure Lowering Effect: -26%
[8]; 90 min
  Maximum Blood Pressure Lowering Effect: -28%
[8]; 120 min
  Maximum Blood Pressure Lowering Effect: -25%
[8]; 240 min
  Maximum Blood Pressure Lowering Effect: -40%
[8]; 360 min
  Maximum Blood Pressure Lowering Effect: -36%
[8]; 1320 min
  Maximum Blood Pressure Lowering Effect: -35%
[8]; 1440 min
  Maximum Blood Pressure Lowering Effect: -40%
[5]; 3 mg/kg
  Maximum Blood Pressure Lowering Effect: -40%
[6]; 0.1 mg/kg
  Maximum Blood Pressure Lowering Effect: -20%
[6]; 0.3 mg/kg
  Maximum Blood Pressure Lowering Effect: -24%
